Results from paper PMC10336670 (Saudi Pharmaceutical Journal : SPJ, 2023).

These molecules were tested against urease enzyme (Canavalia ensiformis, UniProt P07374).
Type: biochemical

urease enzyme, sequence (P07374 whole entry, looked up): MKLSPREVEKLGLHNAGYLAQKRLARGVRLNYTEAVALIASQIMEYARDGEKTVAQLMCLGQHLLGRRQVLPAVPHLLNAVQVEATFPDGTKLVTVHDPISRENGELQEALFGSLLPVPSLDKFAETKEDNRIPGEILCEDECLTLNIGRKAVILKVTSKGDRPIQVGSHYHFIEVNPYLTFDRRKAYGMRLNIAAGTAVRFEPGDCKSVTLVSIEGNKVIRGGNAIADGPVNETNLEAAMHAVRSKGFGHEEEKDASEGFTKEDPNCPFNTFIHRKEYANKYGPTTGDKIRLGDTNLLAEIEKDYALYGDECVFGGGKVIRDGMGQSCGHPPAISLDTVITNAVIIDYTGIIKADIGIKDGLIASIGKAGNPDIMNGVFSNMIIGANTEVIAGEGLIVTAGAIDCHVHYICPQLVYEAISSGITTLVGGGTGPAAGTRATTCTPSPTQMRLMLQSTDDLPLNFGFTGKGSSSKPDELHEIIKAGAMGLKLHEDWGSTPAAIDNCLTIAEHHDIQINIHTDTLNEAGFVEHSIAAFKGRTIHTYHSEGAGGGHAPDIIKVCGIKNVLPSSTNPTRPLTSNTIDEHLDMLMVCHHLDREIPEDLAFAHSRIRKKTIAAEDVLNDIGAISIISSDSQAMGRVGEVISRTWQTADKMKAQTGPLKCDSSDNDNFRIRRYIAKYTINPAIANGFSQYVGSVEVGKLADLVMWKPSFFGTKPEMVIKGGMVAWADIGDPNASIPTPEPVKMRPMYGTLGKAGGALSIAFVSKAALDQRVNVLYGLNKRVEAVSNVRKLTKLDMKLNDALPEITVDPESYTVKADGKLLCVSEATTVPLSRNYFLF

SMILES | potency as urease inhibitor compared to the standard drug thiourea
CN(C)c1ccc(-c2coc(N/N=C\c3cnc4ccc(F)cn34)n2)cc1 [4 l, (Z)-4-(2-(2-((6-fluoroimidazo[1,2-a]pyridin-3-yl)methylene)hydrazineyl)oxazol-4-yl)-N,N-dimethylaniline] | three-fold least potency
Fc1ccc2ncc(/C=N\Nc3nc(-c4ccc(-c5ccccc5)cc4)co3)n2c1 [4c, (Z)-4-([1,1'-biphenyl]-4-yl)-2-(2-((6-fluoroimidazo[1,2-a]pyridin-3-yl)methylene)hydrazineyl)oxazole] | three-fold least potent
Cc1ccc(-c2ccc(-c3coc(N/N=C\c4cnc5ccc(F)cn45)n3)cc2)cc1 [4f, (Z)-2-(2-((6-fluoroimidazo[1,2-a]pyridin-3-yl)methylene)hydrazineyl)-4-(4'-methyl-[1,1'-biphenyl]-4-yl)oxazole] | three-fold least potent
Cc1ccccc1-c1coc(N/N=C\c2cnc3ccc(F)cn23)n1 [4p, (Z)-2-(2-((6-fluoroimidazo[1,2-a]pyridin-3-yl)methylene)hydrazineyl)-4-(o-tolyl)oxazole] | three-fold least potency
